The text below walks through data of US8003783B2, “17B-hydroxysteroid dehydrogenase inhibitors” (Sterix Limited, priority 2004, dated 2011).

Where two headings read alike, the source gives them in different places.

Test [1] has as its target T1, E1-STS (Homo sapiens, UniProt P08842).
T1 construct: endogenous in cells; host or cells: MCF-7 human breast cancer cells
T1 sequence (P08842 22-583): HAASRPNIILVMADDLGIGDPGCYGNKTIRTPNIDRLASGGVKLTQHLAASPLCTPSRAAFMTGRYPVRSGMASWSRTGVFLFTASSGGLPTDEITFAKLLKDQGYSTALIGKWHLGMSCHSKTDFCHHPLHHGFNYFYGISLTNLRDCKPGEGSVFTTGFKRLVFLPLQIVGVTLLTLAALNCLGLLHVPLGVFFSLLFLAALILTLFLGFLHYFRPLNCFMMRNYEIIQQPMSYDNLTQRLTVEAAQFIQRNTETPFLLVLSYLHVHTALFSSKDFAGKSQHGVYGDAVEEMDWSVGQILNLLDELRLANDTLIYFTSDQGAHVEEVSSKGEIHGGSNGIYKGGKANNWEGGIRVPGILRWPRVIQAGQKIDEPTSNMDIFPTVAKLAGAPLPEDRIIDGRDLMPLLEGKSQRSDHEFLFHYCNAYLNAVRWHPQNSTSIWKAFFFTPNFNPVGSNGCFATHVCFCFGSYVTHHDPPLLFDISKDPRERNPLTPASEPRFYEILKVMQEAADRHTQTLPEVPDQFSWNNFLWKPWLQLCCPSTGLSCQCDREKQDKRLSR
The arrangement: dose or concentration left out as unconfirmed. The following applies: intact MCF-7 cells; cited from earlier work.

Test [2] deals with rats. The following applies: cited from earlier work.
For test [3], the target named is T2, rat liver E1-STS (Rattus norvegicus, UniProt P15589).
T2 construct: samples of liver tissue were obtained and oestrone sulphatase activity assayed; from tissue; host or cells: rat liver
T2 sequence (P15589 20-577): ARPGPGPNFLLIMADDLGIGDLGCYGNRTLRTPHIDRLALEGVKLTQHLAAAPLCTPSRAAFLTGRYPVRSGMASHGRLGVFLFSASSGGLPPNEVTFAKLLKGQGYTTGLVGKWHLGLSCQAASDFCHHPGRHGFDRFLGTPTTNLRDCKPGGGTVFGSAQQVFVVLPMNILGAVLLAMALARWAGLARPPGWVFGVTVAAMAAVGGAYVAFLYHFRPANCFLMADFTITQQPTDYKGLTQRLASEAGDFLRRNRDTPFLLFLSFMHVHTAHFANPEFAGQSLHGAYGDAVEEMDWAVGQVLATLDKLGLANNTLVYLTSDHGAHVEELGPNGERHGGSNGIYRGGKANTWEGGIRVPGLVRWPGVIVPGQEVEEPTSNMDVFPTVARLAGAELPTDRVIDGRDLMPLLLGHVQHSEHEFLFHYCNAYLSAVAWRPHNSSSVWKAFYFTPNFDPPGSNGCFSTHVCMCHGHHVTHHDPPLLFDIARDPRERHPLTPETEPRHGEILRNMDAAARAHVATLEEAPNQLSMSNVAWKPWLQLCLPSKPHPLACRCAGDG
The following applies: administered orally or subcutaneously; cited from earlier work.

In test [4] the target is T3, rat liver DHA-STS (Rattus norvegicus, UniProt P15589).
T3 construct: from tissue; host or cells: rat liver
T3 sequence (P15589 20-577): T2 sequence (P15589 20-577)
The following applies: administered orally or subcutaneously; cited from earlier work.

Test [5] deals with T4, 17β-HSD1 (Homo sapiens, UniProt P14061).
T4 construct: was measured in intact cell monolayers of T47D and MDA-MB-231 breast cancer cells respectively; endogenous in cells; host or cells: T-47D human breast cancer cells
T4 sequence (P14061 1-328): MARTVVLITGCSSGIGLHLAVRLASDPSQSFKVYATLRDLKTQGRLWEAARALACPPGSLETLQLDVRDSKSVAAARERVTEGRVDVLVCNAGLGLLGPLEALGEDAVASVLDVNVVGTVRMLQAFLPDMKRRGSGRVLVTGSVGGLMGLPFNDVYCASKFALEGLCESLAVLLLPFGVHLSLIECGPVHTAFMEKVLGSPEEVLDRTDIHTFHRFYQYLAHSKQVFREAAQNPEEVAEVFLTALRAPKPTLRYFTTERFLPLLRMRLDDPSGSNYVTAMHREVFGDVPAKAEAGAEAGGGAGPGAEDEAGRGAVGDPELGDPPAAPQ
The test can be described thus: 17β-HSD Type I activity in T-47D cells (E1→E2). The class given is cell-based. The following applies: for inhibition at 10 µM: T47D.

For test [6], the target named is T5, 17β-HSD2 (Homo sapiens, UniProt P37059).
T5 construct: was measured in intact cell monolayers of T47D and MDA-MB-231 breast cancer cells respectively; endogenous in cells; host or cells: MDA-MB-231 human breast cancer cells
T5 sequence (P37059 1-387): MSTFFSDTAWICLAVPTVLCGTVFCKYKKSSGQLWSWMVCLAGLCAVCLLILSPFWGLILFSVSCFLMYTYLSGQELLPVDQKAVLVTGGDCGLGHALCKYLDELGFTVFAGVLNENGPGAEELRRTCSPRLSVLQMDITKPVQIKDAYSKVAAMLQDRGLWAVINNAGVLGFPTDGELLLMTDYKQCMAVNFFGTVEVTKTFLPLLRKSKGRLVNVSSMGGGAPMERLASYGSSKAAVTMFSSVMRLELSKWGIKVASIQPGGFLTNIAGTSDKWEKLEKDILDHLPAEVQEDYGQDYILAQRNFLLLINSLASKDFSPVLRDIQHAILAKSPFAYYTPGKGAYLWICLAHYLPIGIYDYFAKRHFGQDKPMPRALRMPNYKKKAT
The test can be described thus: 17β-HSD Type II activity in MDA-MB-231 cells (E2→E1). The class given is cell-based.

Setting [7] is: 10 μM, T-47D cells, E1→E2, read-out: % inhibition of 17β-HSD1 @ 10 μM.
Where [8] appears, read: 10 μM, MDA-MB-231 cells, E2→E1, read-out: % inhibition of 17β-HSD2 @ 10 μM.
The mark [9] stands for this setting: T-47D cells, E1→E2, read-out: IC50 (17β-HSD1).

As for `C[C@]12CC[C@@H]3c4ccc(OS(N)(=O)=O)cc4CC[C@H]3[C@@H]1CCC2=O` [EMATE, oestrone-3-sulphamate], the “inhibition of E1-STS activity” value in test [1] is listed as “more than 99%”. Also, the “oral uterotrophic activity relative to oestradiol” value in test [2] is 100 times. Also, the “inhibition of rat liver E1-STS activity” value in test [3] is 99%. In addition, in test [4], the “inhibition of rat liver DHA-STS activity” value is 99%.
By inhibition is commonly meant the relative decrease from the control value, in per cent. As to `C[C@]12CCC3c4ccc(O)cc4CCC3C1Cc1cccnc12` (some centres unmarked) [compound 663], the inhibition at 10 µM stood at 78% in test [5] (setting [7]) and 34% in test [6] (setting [8]).
On the same counts, the results for `CC(C)NC(=O)c1[nH]nc2c1CC1C3CCc4cc(O)ccc4C3CC[C@]21C` (some centres unmarked) [compound 857, 2-Hydroxy-6a-methyl-4b,5,6,6a,8,10,10a,10b,11,12-decahydro-7,8-diaza-pentaleno[2,1-a]phenanthrene-9-carboxylic acid isopropyl amide] are 57% and 0.3%.
The like results for `C[C@]12CCC3c4ccc(O)cc4CCC3C1CC(Cc1ccncc1)[C@@H]2O` (some centres unmarked) [compound 543, 13-Methyl-16-pyridin-4-ylmethyl-7,8,9,11,12,13,14,15,16,17-decahydro-6H-cyclopenta[a]phenanthrene-3,17-diol] were, in that order, 84% and 37%.
Turning to `C[C@]12CCC3c4ccc(O)cc4CCC3C1CC(CC(=O)NCc1ccco1)C2=O` (some centres unmarked) [compound 672], the inhibition at 10 µM in test [5] (read-out: % inhibition of 17β-HSD1 @ 10 μM, 10 μM, T-47D cells, E1→E2) was determined as 85%; in test [6] (MDA-MB-231, read-out: % inhibition of 17β-HSD2 @ 10 μM), 3%.
Take `C[C@]12CCC3c4ccc(O)cc4CCC3C1C/C(=C\c1ccccn1)[C@@H]2O` (some centres unmarked) [compound 322]: the figures for the inhibition at 10 µM in test [5] (setting [7]) and in test [6] (setting [8]) were 55% and 17%, respectively.
On the same counts, the results for `CCN(C)C(=O)CC1CC2C3CCc4cc(O)ccc4C3CC[C@]2(C)[C@H]1O` (some centres unmarked) [compound 771] are 78% and 16%.
The like results for `C[C@]12CCC3c4ccc(O)cc4CCC3C1CC1C(C(F)(F)F)=NNC12O` (some centres unmarked) [compound 947] were, in that order, 83% and 2%.
The term IC50 denotes the concentration that inhibits the measured activity by half. For the compound `C[C@]12CCC3c4ccc(O)cc4CCC3C1CC(CC(=O)NCc1cccnc1)C2=O` (some centres unmarked) [compound 670], the values for the inhibition at 10 µM in test [5] (setting [7]) and in test [6] (setting [8]) were 95% and 26%, respectively. The half-inhibitory concentration (IC50) in test [5] (setting [9]) came out at 33 nM.
On to `CCNC(=O)CC1CC2C3CCc4cc(O)ccc4C3CC[C@]2(C)C1=O` (some centres unmarked) [compound 744], for which the inhibition at 10 µM stood at 84% in test [5] (setting [7]) and 2% in test [6] (setting [8]).
As to `CCc1cc2c(cc1O)CCC1C2CC[C@]2(C)C(=O)C(CC(=O)NCc3cccnc3)CC12` (some centres unmarked) [compound 1040], inhibition in test [5] was half-maximal at 27 nM (IC50). Moreover, in test [6] (setting [8]), the inhibition at 10 µM was -5%.
In the case of `COC(=O)C1CC2C3CCc4cc(O)ccc4C3CC[C@]2(C)[C@H]1O` (some centres unmarked) [compound 572], the inhibition at 10 µM came to 63% in test [5] (setting [7]) and 2% in test [6] (setting [8]).
The like results for `C[C@]12CCC3c4ccc(O)cc4CCC3C1C/C(=C\c1ccccn1)C2=O` (some centres unmarked) [compound 319] were, in that order, 23% and 16%.
For the compound `COC(=O)Cn1cc2c(n1)[C@@]1(C)CCC3c4ccc(O)cc4CCC3C1C2` (some centres unmarked) [compound 806], the inhibition at 10 µM in test [5] (setting [7]) amounted to 95%; in test [6] (setting [8]), 19%. Further, in test [5] (setting [9]), the IC50 is 920 nM.
